The source of these data is patent US11634396B2 (priority 2021, dated 2023).

SMILES strings stand for the structures. Structures can show the parent of a compound that is named as a salt.

In one assay the target is human mOR (Homo sapiens (Human), UniProt P35372). Briefly: cell-based.
human mOR, sequence (P35372 whole entry): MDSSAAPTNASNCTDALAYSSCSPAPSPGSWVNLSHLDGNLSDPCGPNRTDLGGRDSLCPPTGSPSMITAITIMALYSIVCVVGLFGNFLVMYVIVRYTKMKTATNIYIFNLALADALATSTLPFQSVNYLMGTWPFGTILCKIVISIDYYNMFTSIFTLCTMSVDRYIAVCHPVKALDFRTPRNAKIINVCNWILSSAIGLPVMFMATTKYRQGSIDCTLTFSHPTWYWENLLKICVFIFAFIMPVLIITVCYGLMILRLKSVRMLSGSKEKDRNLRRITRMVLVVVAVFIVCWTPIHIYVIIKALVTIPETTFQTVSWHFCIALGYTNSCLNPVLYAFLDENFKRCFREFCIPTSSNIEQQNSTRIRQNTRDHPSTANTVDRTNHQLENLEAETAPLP
Settings: not given
As usually defined, the IC50 is the concentration that gives 50% inhibition. For the molecule `Cc1c(C[C@@H](CNC(=O)C[C@H](c2cccnc2)C2(C)CC2)N(C)C)ccc2[nH]ncc12` [Compound 199, (S)-N-((S)-2-(dimethylamino)-3-(4-methyl-1H-indazol-5-yl)propyl)-3-(1-methylcyclopropyl)-3-(pyridin-3-yl)propanamide], the half-inhibitory concentration (IC50) is less than 300 nM.
Still for that read-out and setting: with `Cc1cncc([C@H](CC(=O)NC[C@H](Cc2ccc3[nH]ncc3c2)N(C)C)C2(C(F)(F)F)CC2)c1` [Compound 203, (S)-N-((S)-2-(dimethylamino)-3-(1H-indazol-5-yl)propyl)-3-(5-methylpyridin-3-yl)-3-(1-(trifluoromethyl)cyclopropyl)propanamide] the figure was 300 to 3000 nM; with `CN(C)[C@H](CNC(=O)C[C@H](c1cccnc1)C1(C)CC1)Cc1ccc2[nH]ncc2c1` [Compound 204, (S)-N-((S)-2-(dimethylamino)-3-(1H-indazol-5-yl)propyl)-3-(1-methylcyclopropyl)-3-(pyridin-3-yl)propanamide], less than 300 nM; with `CN(C)[C@H](CNC(=O)C[C@@H](c1ccncc1)C1(C(F)(F)F)CC1)Cc1ccc2[nH]ncc2c1` [Compound 208, (S)-N-((S)-2-(dimethylamino)-3-(1H-indazol-5-yl)propyl)-3-(pyridin-4-yl)-3-(1-(trifluoromethyl)cyclopropyl)propanamide], less than 300 nM.
The same measure, in the same setting: with `CN(C)[C@H](CNC(=O)C[C@H](c1ccncc1)C1(C(F)(F)F)CC1)Cc1ccc2[nH]ncc2c1` [Compound 209] the figure was less than 300 nM; with `Cc1ccc([C@@H](CC(=O)NC[C@H](Cc2ccc3[nH]ncc3c2)N(C)C)C2(C(F)(F)F)CC2)cn1` [Compound 211, (R)-N-((S)-2-(dimethylamino)-3-(1H-indazol-5-yl)propyl)-3-(6-methylpyridin-3-yl)-3-(1-(trifluoromethyl)cyclopropyl)propanamide], less than 300 nM; with `CN(C)[C@H](CNC(=O)C[C@H](c1cccnc1)C1(C(F)(F)F)CC1)Cc1ccc2[nH]ncc2c1` [Compound 213, (R)-N-((S)-2-(dimethylamino)-3-(1H-indazol-5-yl)propyl)-3-(pyridin-3-yl)-3-(1-(trifluoromethyl)cyclopropyl)propanamide], less than 300 nM.
The same measure, in the same setting: under `CN(C)[C@H](CNC(=O)C[C@H](c1cccnc1)C1(C(F)(F)F)CC1)Cc1cc(F)c2[nH]ncc2c1` [Compound 230, (R)-N-((S)-2-(dimethylamino)-3-(7-fluoro-1H-indazol-5-yl)propyl)-3-(pyridin-3-yl)-3-(1-(trifluoromethyl)cyclopropyl)propanamide] stands less than 300 nM.
Take `Cc1cc(C[C@@H](CNC(=O)C[C@H](c2cccnc2)C2(C(F)(F)F)CC2)N(C)C)cc2cn[nH]c12` [Compound 231, (R)-N-((S)-2-(dimethylamino)-3-(7-methyl-1H-indazol-5-yl)propyl)-3-(pyridin-3-yl)-3-(1-(trifluoromethyl)cyclopropyl)propanamide; bis(trifluoroacetic acid)]: the IC50 was less than 300 nM.
On the same count and under the same terms, under `CN(C)[C@H](CNC(=O)C[C@H](c1cccnc1)C1(C(F)(F)F)CC1)Cc1ccc2cn[nH]c2c1` [Compound 232, (R)-N-((S)-2-(dimethylamino)-3-(1H-indazol-6-yl)propyl)-3-(pyridin-3-yl)-3-(1-(trifluoromethyl)cyclopropyl)propanamide] stands 300 to 3000 nM; under `CN(C)[C@H](CNC(=O)C[C@H](c1cccnc1)C1(C(F)(F)F)CC1)Cc1cc2cn[nH]c2cc1Cl` [Compound 235, (R)-N-((S)-3-(6-chloro-1H-indazol-5-yl)-2-(dimethylamino)propyl)-3-(pyridin-3-yl)-3-(1-(trifluoromethyl)cyclopropyl)propanamide], less than 300 nM; under `CN(C)[C@H](CNC(=O)C[C@H](c1cccnc1)C1(C(F)(F)F)CC1)Cc1cc(F)c(O)cc1F` [Compound 238, (R)-N-((S)-3-(2,5-difluoro-4-hydroxyphenyl)-2-(dimethylamino)propyl)-3-(pyridin-3-yl)-3-(1-(trifluoromethyl)cyclopropyl)propanamide], less than 300 nM.
On the same count and under the same terms, under `CN(C)[C@H](CNC(=O)C[C@H](c1ccncc1)C1CC1)Cc1c(F)cc(O)cc1F` [Compound 239, (S)-3-cyclopropyl-N-((S)-3-(2,6-difluoro-4-hydroxyphenyl)-2-(dimethylamino)propyl)-3-(pyridin-4-yl)propanamide] stands less than 300 nM.
The same measure, in the same setting: with `Cc1cc(O)cc(C)c1C[C@@H](CNC(=O)C[C@H](CC1CC1)c1cccnc1)N(C)C` [Compound 241, (S)-4-cyclopropyl-N-((S)-2-(dimethylamino)-3-(4-hydroxy-2,6-dimethylphenyl)propyl)-3-(pyridin-3-yl)butanamide] the figure was less than 300 nM.
For `Cc1cc(O)cc(C)c1C[C@@H](CNC(=O)C[C@H](c1cccnc1)C1(C(F)(F)F)CC1)N(C)C` [Compound 242, (R)-N-((S)-2-(dimethylamino)-3-(4-hydroxy-2,6-dimethylphenyl)propyl)-3-(pyridin-3-yl)-3-(1-(trifluoromethyl)cyclopropyl)propanamide], the IC50 was less than 300 nM.
With `Cc1cc(O)cc(C)c1C[C@@H](CNC(=O)C[C@@H](c1cccnc1)C1(C(F)(F)F)CC1)N(C)C` [Compound 243, (S)-N-((S)-2-(dimethylamino)-3-(4-hydroxy-2,6-dimethylphenyl)propyl)-3-(pyridin-3-yl)-3-(1-(trifluoromethyl)cyclopropyl)propanamide], the IC50 was less than 300 nM.
Still for that read-out and setting: with `COc1ccc(C(CC(=O)NC[C@H](Cc2c(C)cc(O)cc2C)N(C)C)C2(C(F)(F)F)CC2)cn1` (stereo partly drawn) [Compound 244, N-((S)-2-(dimethylamino)-3-(4-hydroxy-2,6-dimethylphenyl)propyl)-3-(6-methoxypyridin-3-yl)-3-(1-(trifluoromethyl)cyclopropyl) propanamide] the figure was less than 300 nM; with `Cc1cc(O)cc(C)c1C[C@@H](CNC(=O)C[C@H](c1cncc(Cl)c1)C1(C(F)(F)F)CC1)N(C)C` [Compound 245, (R)-3-(5-chloropyridin-3-yl)-N-((S)-2-(dimethylamino)-3-(4-hydroxy-2,6-dimethylphenyl)propyl)-3-(1-(trifluoromethyl)cyclopropyl)propanamide], less than 300 nM; with `Cc1cc(O)cc(C)c1C[C@@H](CNC(=O)CC(c1ncc(Cl)cn1)C1(C(F)(F)F)CC1)N(C)C` (stereo partly drawn) [Compound 246, 3-(5-chloropyrimidin-2-yl)-N-((S)-2-(dimethylamino)-3-(4-hydroxy-2,6-dimethylphenyl)propyl)-3-(1-(trifluoromethyl)cyclopropyl)propanamide], less than 300 nM.

Staying with this assay, now noted: CHO Tag-lite human mOR stable cell line; forskolin 4 μM and DAMGO at EC90; read-out: mOR cAMP Antagonist Assay IC50.
`CN[C@H](CNC(=O)C[C@H](c1cccnc1)C1(C(F)(F)F)CC1)Cc1ccc2[nH]ncc2c1` [Compound 200, (R)-N-((S)-3-(1H-indazol-5-yl)-2-(methylamino)propyl)-3-(pyridin-3-yl)-3-(1-(trifluoromethyl)cyclopropyl)propanamide]: the IC50 was 300 to 3000 nM.
Still for that read-out and setting: under `N[C@H](CNC(=O)C[C@H](c1cccnc1)C1(C(F)(F)F)CC1)Cc1ccc2[nH]ncc2c1` [Compound 201, (R)-N-((S)-2-amino-3-(1H-indazol-5-yl)propyl)-3-(pyridin-3-yl)-3-(1-(trifluoromethyl)cyclopropyl)propenamide dihydrochloride salt] stands greater than 3000 nM; under `Cc1cc([C@@H](CC(=O)NC[C@H](Cc2ccc3[nH]ncc3c2)N(C)C)C2(C(F)(F)F)CC2)ccn1` [Compound 202, (R)-N-((S)-2-(dimethylamino)-3-(1H-indazol-5-yl)propyl)-3-(2-methylpyridin-4-yl)-3-(1-(trifluoromethyl)cyclopropyl)propanamide], less than 300 nM; under `CN(C)[C@H](CNC(=O)C[C@H](c1cncc(Cl)c1)C1(C(F)(F)F)CC1)Cc1ccc2[nH]ncc2c1` [Compound 205, (R)-3-(5-chloropyridin-3-yl)-N-((S)-2-(dimethylamino)-3-(1H-indazol-5-yl)propyl)-3-(1-(trifluoromethyl)cyclopropyl) propanamide], less than 300 nM.
The same measure, in the same setting: with `CC(C)[C@H](CC(=O)NC[C@H](Cc1ccc2[nH]ncc2c1)N(C)C)c1cccnc1` [Compound 206, (S)-N-((S)-2-(dimethylamino)-3-(1H-indazol-5-yl)propyl)-4-methyl-3-(pyridin-3-yl)pentanamide] the figure was 300 to 3000 nM; with `CN(C)[C@H](CNC(=O)C[C@H](c1cccnc1)C1CC1)Cc1ccc2[nH]ncc2c1` [Compound 207, (S)-3-cyclopropyl-N-((S)-2-(dimethylamino)-3-(1H-indazol-5-yl)propyl)-3-(pyridin-3-yl)propanamide], greater than 3000 nM; with `CN(C)[C@H](CNC(=O)C[C@@H](CC1CC1)c1cccnc1)Cc1ccc2[nH]ncc2c1` [Compound 212, (R)-4-cyclopropyl-N-((S)-2-(dimethylamino)-3-(1H-indazol-5-yl)propyl)-3-(pyridin-3-yl)butanamide], greater than 3000 nM.
Take `Cc1ncc([C@@H](CC(=O)NC[C@H](Cc2cc3cn[nH]c3cc2Cl)N(C)C)C2(C(F)(F)F)CC2)cn1` [Compound 233, (R)-N-((S)-3-(6-chloro-H-indazol-5-yl)-2-(dimethylamino)propyl)-3-(2-methylpyrimidin-5-yl)-3-(1-(trifluoromethyl)cyclopropyl) propanamide]: the IC50 was less than 300 nM.
Same read-out and setting: with `CN(C)[C@H](CNC(=O)C[C@H](c1ccncc1)C1(C(F)(F)F)CC1)Cc1cc2cn[nH]c2cc1Cl` [Compound 234, (R)-N-((S)-3-(6-chloro-H-indazol-5-yl)-2-(dimethylamino)propyl)-3-(pyridin-4-yl)-3-(1-(trifluoromethyl)cyclopropyl)propanamide] the figure was less than 300 nM; with `CN(C)[C@H](CNC(=O)C[C@@H](c1cccnc1)C1(C(F)(F)F)CC1)Cc1ccc2[nH]ncc2c1` [Compound 237, (S)-N-((S)-2-(dimethylamino)-3-(1H-indazol-5-yl)propyl)-3-(pyridin-3-yl)-3-(1-(trifluoromethyl)cyclopropyl)propanamide], less than 300 nM.
